How the values were obtained:
Type in all cases: in vivo
[1] = system: normotensive dogs; assay: Intraocular pressure (IOP) in normotensive dogs
Procedure: Compounds from above are tested in vivo to measure its ability to reduce intraocular pressure. Compound 14a is tested in normotensive dogs.

[2] = system: laser-induced hypertensive monkeys; assay: Intraocular pressure (IOP) in laser-induced hypertensive monkeys
[3] = system: lashes and adjacent hairs of patients; assay: Lash and hair appearance in glaucoma patients treated in one eye only; conditions: glaucoma patient treated in one eye
From the text: In the course of treating patients having glaucoma, treatment may only be appropriate in one eye. […] The lash appearance on the lids of the treated eyes would have appeared quite attractive if it represented a bilateral phenomenon. As a result of its asymmetric nature, the long lashes on one side could be construed as disturbing from a cosmetic standpoint. A systemic examination was preformed as a result of the asymmetric phenomenon. It soon became apparent that this altered appearance was not an isolated finding. […] Definite differences could be identified to varying degrees in the lashes and adjacent hairs of all patients who were taking the drug on a unilateral basis for longer than 6 months.
The changes in the lashes were apparent on gross inspection in several patients once attention was focused on the issue. In those with light colored hair and lashes, the differences were only seen easily with the aid of the high magnification and lighting capabilities of the slit lamp biomicroscope. In the course of glaucoma follow-up examination, attention is generally immediately focused on the eye itself. As a result of the high power magnification needed only one eye is seen at a time and the eye is seen at a high enough power that the lashes are not in focus. […]

SMILES	intraocular pressure (IOP) change from baseline [1]	intraocular pressure (IOP) change from baseline [2]	lash appearance, treated eye versus non-treated eye [3]
CCCCCC(O)c1ccc(C2C(O)CC(Cl)C2Cc2cccc(CCC(=O)OCCO)c2)cc1 (centres unmarked) [Compound 25a]	decreases from baseline	decreases from baseline	
CCCCCC(O)c1ccc(C2C(O)CC(Cl)C2Cc2cccc(CCC(=O)OCCN3CCOCC3)c2)cc1 (centres unmarked) [Compound 25b]	decreases from baseline	decreases from baseline	
CCCCCC(O)c1ccc(C2C(O)CC(Cl)C2CCCc2ncc(C(=O)OCCO)s2)cc1 (centres unmarked) [Compound 34a]	decreases from baseline	decreases from baseline	
CCCCCC(O)c1ccc(C2C(O)CC(Cl)C2CCCc2ncc(C(=O)OCCN3CCOCC3)s2)cc1 (centres unmarked) [Compound 34b]	decreases from baseline	decreases from baseline	
CCCCCC(O)c1ccc(C2C(O)CC(F)C2CC=CCCCC(=O)OCCO)cc1 (centres unmarked) [Compound 40a]	decreases from baseline	decreases from baseline	
CCCCCC(O)c1ccc(C2C(O)CC(F)C2CC=CCCCC(=O)OCCN2CCOCC2)cc1 (centres unmarked) [Compound 40b]	decreases from baseline	decreases from baseline	
CCCCCC(O)c1ccc(C2C(O)CC(Cl)C2CC=CCCCC(=O)OCCO)cc1 (centres unmarked) [Compound 46a]	decreases from baseline	decreases from baseline	
CCCCCC(O)c1ccc(C2C(O)CC(Cl)C2CC=CCCCC(=O)OCCN2CCOCC2)cc1 (centres unmarked) [Compound 46b]	decreases from baseline	decreases from baseline	
CCCCCC(O)c1ccc(C2C(O)CC(Cl)C2CC=CCCCC(=O)OCCO)cc1 (centres unmarked) [Compound 51a]	decreases from baseline	decreases from baseline	
CCCCCC(O)c1ccc(C2C(O)CC(Cl)C2CC=CCCCC(=O)OCCN2CCOCC2)cc1 (centres unmarked) [Compound 51b]	decreases from baseline	decreases from baseline	
CCCCCCc1ccc(C2C(O)CC(Cl)C2CC=CCCCC(=O)OCCO)cc1 (centres unmarked) [Compound 63a]	decreases from baseline	decreases from baseline	
CCCCCCc1ccc(C2C(O)CC(Cl)C2CC=CCCCC(=O)OCCN2CCOCC2)cc1 (centres unmarked) [Compound 63b]	decreases from baseline	decreases from baseline	
CCCCCC(O)c1ccc(C2C(O)CC(Cl)C2CC=CCCCC(=O)OCCO)cc1 (centres unmarked) [Compound 68a]	decreases from baseline	decreases from baseline	
CCCCCC(O)c1ccc(C2C(O)CC(Cl)C2CC=CCCCC(=O)OCCN2CCOCC2)cc1 (centres unmarked) [Compound 68b]	decreases from baseline	decreases from baseline	
CCNC(=O)CCC/C=C\C[C@@H]1[C@@H](/C=C/[C@@H](O)CCc2ccccc2)[C@H](O)C[C@@H]1O [bimatoprost]			longer, thicker, and fuller in the treated eye than in the non-treated eye

From patent publication US7732443B2, “Therapeutic substituted cyclopentanes” (priority 2008, dated 2010)
